Earlier results in patent publication US7858118B2, “Extended release composition containing Tramadol” (Galephar Pharmaceutical Research, Inc., priority 2001, dated 2010).
Read-outs that look alike come from different tables or passages of the source.

Tests used:
[1] = after oral administration of immediate release dosage form
[2] = in words
[3] = animal models
[4] = single 100 mg oral dose, healthy subjects

Row | Structure (SMILES) | maximum plasma concentration of the [+]-enantiomer of Tramadol (100 mg dose) | maximum plasma concentration of the [−]-enantiomer of Tramadol (100 mg dose) | maximum plasma concentration of the [−]-M1 enantiomer (100 mg dose of Tramadol, first value of the pair) | maximum plasma concentration of the other M1 enantiomer (not given) (100 mg dose of Tramadol, second value of the pair) | maximum plasma concentration at steady state (100 mg four times daily) | time to steady state (100 mg four times daily) | mean absolute bioavailability (100 mg oral dose) | time to peak plasma concentrations (immediate release, oral (b6)) | plasma half-life (multiple dosing) | effect of food on rate or extent of absorption (oral, immediate release) | mean peak plasma concentration of the active mono-O-desmethyl metabolite (single 100 mg oral dose of Tramadol) | time of peak plasma concentration of the mono-O-desmethyl metabolite (single 100 mg oral dose of Tramadol, post-dose) | mean peak plasma concentration of Tramadol [4] | time of mean peak plasma concentration of Tramadol [4] | plasma half-life (single dosing) | onset of analgesia [1] | solubility in water and body fluids [2] | potency relative to Tramadol in producing analgesia [3] | potency relative to Tramadol in u-opioid binding (μ-opioid receptors)
1 | COc1cccc(C2(O)CCCCC2CN(C)C)c1 (stereo not shown) [Tramadol] | 168 ± 36 ng/mL | 148 ± 33 ng/mL | 35 ± 10 ng/mL | 26 ± 13 ng/mL | 592 ± 177 ng/mL | 2 days | ≈ 75% | ≈ 2 hours | 7 h | does not significantly affect | 55 ± 20 ng/mL | ≈ 3 hours | 308 ± 78 ng/mL | ≈ 2 hours | 6 h | ≤ 1 h | extremely high solubility |  | 
2 | CN(C)C[C@H]1CCCC[C@]1(O)c1cccc(O)c1 [Example M1, O-desmethyl tramadol] |  |  |  |  |  |  |  |  |  |  |  |  |  |  |  |  |  | up to 6 times | 200 times
